# Experiments:
# Test in all cases: relative viability (nuclei count vs DMSO), 5 days (fraction); higher = more cells survive
# [1] = compound: C1CN(CCN1)C2=CC=C(C=C2)C3=CN4C(=C(C=N4)C5=CC=NC6=CC=CC=C56)N=C3 [DM3189]
# Summary of the method: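 Only plates meeting two conditions passed: control CV below 25% and at least one doubling. Lung cancer cell lines, kept overnight at 37 °C in 1536-well plates, were pinned with five library-drug doses (not always all listed) √10 apart on vehicle-anchored plates and grown 5 days without medium change. A one-step fix, permeabilisation and Hoechst stain preceded 4× imaging and MetaXpress nuclear counting. Viability equals treated-well nuclei divided by vehicle-well nuclei, as the median over plates.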
# [2] = compound: C1CN(CCN1)C2=CC=C(C=C2)C3=CN4C(=C(C=N4)C5=CC=NC6=CC=CC=C56)N=C3 [DM3189] + Cc1nc(NC(=O)N2CCC[C@H]2C(N)=O)sc1-c1ccnc(C(C)(C)C(F)(F)F)c1 [Alpelisib] (partner 2 µM)
# Summary of the method: (§1)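 Five library-drug doses in √10 steps were combined with a fixed anchor-drug dose, or a single drug was given alone, by pin tool to lung cancer cell lines in 1536-well plates the day after seeding. Nuclei were stained and counted after 5 days. Relative viability is the nuclei count in treated wells over that in vehicle wells, taken as the median of duplicate plates.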
# [3] = compound: C1CN(CCN1)C2=CC=C(C=C2)C3=CN4C(=C(C=N4)C5=CC=NC6=CC=CC=C56)N=C3 [DM3189] + O=C(c1cc(Cc2n[nH]c(=O)c3ccccc23)ccc1F)N1CCN(C(=O)C2CC2)CC1 [Olaparib] (partner 8 µM)
# Summary of the method: as §1
# [4] = compound: C1CN(CCN1)C2=CC=C(C=C2)C3=CN4C(=C(C=N4)C5=CC=NC6=CC=CC=C56)N=C3 [DM3189] + CS(=O)(=O)CCNCc1ccc(-c2ccc3ncnc(Nc4ccc(OCc5cccc(F)c5)c(Cl)c4)c3c2)o1 [Lapatinib] (partner 2 µM)
# Summary of the method: as §1
# [5] = compound: C1CN(CCN1)C2=CC=C(C=C2)C3=CN4C(=C(C=N4)C5=CC=NC6=CC=CC=C56)N=C3 [DM3189] + CS(=O)(=O)N1CCN(Cc2cc3nc(-c4cccc5[nH]ncc45)nc(N4CCOCC4)c3s2)CC1 [Pictilisib] (partner 1 µM)
# Summary of the method: as §1
# [6] = compound: C1CN(CCN1)C2=CC=C(C=C2)C3=CN4C(=C(C=N4)C5=CC=NC6=CC=CC=C56)N=C3 [DM3189] + C[C@]1(O)C[C@@H](c2nc(-c3ccc4ccc(-c5ccccc5)nc4c3)c3c(N)nccn32)C1 [Linsitinib] (partner 1 µM)
# Summary of the method: as §1
# [7] = compound: C1CN(CCN1)C2=CC=C(C=C2)C3=CN4C(=C(C=N4)C5=CC=NC6=CC=CC=C56)N=C3 [DM3189] + COc1cc2c(Oc3ccc(NC(=O)C4(C(=O)Nc5ccc(F)cc5)CC4)cc3F)ccnc2cc1OCCCN1CCOCC1 [Foretinib] (partner 0.25 µM)
# Summary of the method: as §1
# [8] = compound: C1CN(CCN1)C2=CC=C(C=C2)C3=CN4C(=C(C=N4)C5=CC=NC6=CC=CC=C56)N=C3 [DM3189] + C[C@@H](Oc1cc(-c2cnn(C3CCNCC3)c2)cnc1N)c1c(Cl)ccc(F)c1Cl [Crizotinib] (partner 1 µM)
# Summary of the method: as §1
# [9] = compound: C1CN(CCN1)C2=CC=C(C=C2)C3=CN4C(=C(C=N4)C5=CC=NC6=CC=CC=C56)N=C3 [DM3189] + CC1(C)CCC(c2ccc(Cl)cc2)=C(CN2CCN(c3ccc(C(=O)NS(=O)(=O)c4ccc(N[C@H](CCN5CCOCC5)CSc5ccccc5)c(S(=O)(=O)C(F)(F)F)c4)cc3)CC2)C1 [Navitoclax] (partner 0.5 µM)
# Summary of the method: as §1
# [10] = compound: C1CN(CCN1)C2=CC=C(C=C2)C3=CN4C(=C(C=N4)C5=CC=NC6=CC=CC=C56)N=C3 [DM3189] + CC(C)C[C@H](NC(=O)[C@H](Cc1ccccc1)NC(=O)c1cnccn1)B(O)O [Bortezomib] (partner 0.002 µM)
# Summary of the method: as §1
# [11] = compound: C1CN(CCN1)C2=CC=C(C=C2)C3=CN4C(=C(C=N4)C5=CC=NC6=CC=CC=C56)N=C3 [DM3189] + COc1cccc2cc(-c3nc([C@H]4CC[C@H](C(=O)O)CC4)n4ncnc(N)c34)[nH]c12 [OSI-027] (partner 0.5 µM)
# Summary of the method: as §1
# [12] = compound: C1CN(CCN1)C2=CC=C(C=C2)C3=CN4C(=C(C=N4)C5=CC=NC6=CC=CC=C56)N=C3 [DM3189] + Nc1nc2[nH]cc(CCc3ccc(C(=O)N[C@@H](CCC(=O)O)C(=O)O)cc3)c2c(=O)[nH]1 [Pemetrexed] (partner 0.2 µM)
# Summary of the method: as §1
# [13] = compound: C1CN(CCN1)C2=CC=C(C=C2)C3=CN4C(=C(C=N4)C5=CC=NC6=CC=CC=C56)N=C3 [DM3189] + CCNC(=O)c1noc(-c2cc(C(C)C)c(O)cc2O)c1-c1ccc(CN2CCOCC2)cc1 [Luminespib] (partner 0.01 µM)
# Summary of the method: as §1
# [14] = compound: C1CN(CCN1)C2=CC=C(C=C2)C3=CN4C(=C(C=N4)C5=CC=NC6=CC=CC=C56)N=C3 [DM3189] + N=C(N)NC(=N)NCCc1ccccc1 [Phenformin] (partner 250 µM)
# Summary of the method: as §1
# [15] = compound: C1CN(CCN1)C2=CC=C(C=C2)C3=CN4C(=C(C=N4)C5=CC=NC6=CC=CC=C56)N=C3 [DM3189] + Cc1nc(Nc2ncc(C(=O)Nc3c(C)cccc3Cl)s2)cc(N2CCN(CCO)CC2)n1 [Dasatinib] (partner 0.075 µM)
# Summary of the method: as §1
# [16] = compound: C1CN(CCN1)C2=CC=C(C=C2)C3=CN4C(=C(C=N4)C5=CC=NC6=CC=CC=C56)N=C3 [DM3189] + Cc1cc(Nc2cc(N3CCN(C)CC3)nc(Sc3ccc(NC(=O)C4CC4)cc3)n2)n[nH]1 [Tozasertib] (partner 0.1 µM)
# Summary of the method: as §1
cell line,measurement,setting,value
NCI-H1299,relative viability,[1]; 0.08 µM,0.967
same,relative viability,[1]; 0.253 µM,0.987
same,relative viability,[1]; 0.8 µM,0.976
same,relative viability,[1]; 2.53 µM,1.04
same,relative viability,[2]; first compound 0.08 µM,1.09
same,relative viability,[2]; first compound 0.253 µM,1.07
same,relative viability,[2]; first compound 0.8 µM,0.968
same,relative viability,[2]; first compound 2.53 µM,1.15
same,relative viability,[3]; first compound 0.08 µM,0.963
same,relative viability,[3]; first compound 0.253 µM,0.922
same,relative viability,[3]; first compound 0.8 µM,0.753
same,relative viability,[3]; first compound 2.53 µM,1.05
same,relative viability,[4]; first compound 0.08 µM,1.01
same,relative viability,[4]; first compound 0.253 µM,0.926
same,relative viability,[4]; first compound 0.8 µM,0.899
same,relative viability,[4]; first compound 2.53 µM,0.94
same,relative viability,[5]; first compound 0.08 µM,0.911
same,relative viability,[5]; first compound 0.253 µM,0.776
same,relative viability,[5]; first compound 0.8 µM,0.59
same,relative viability,[5]; first compound 2.53 µM,0.495
same,relative viability,[6]; first compound 0.08 µM,0.998
same,relative viability,[6]; first compound 0.253 µM,1.01
same,relative viability,[6]; first compound 0.8 µM,0.958
same,relative viability,[6]; first compound 2.53 µM,1.06
same,relative viability,[7]; first compound 0.08 µM,1.09
same,relative viability,[7]; first compound 0.253 µM,0.996
same,relative viability,[7]; first compound 0.8 µM,1.06
same,relative viability,[7]; first compound 2.53 µM,1.08
same,relative viability,[8]; first compound 0.08 µM,0.99
same,relative viability,[8]; first compound 0.253 µM,0.914
same,relative viability,[8]; first compound 0.8 µM,0.924
same,relative viability,[8]; first compound 2.53 µM,0.983
same,relative viability,[9]; first compound 0.08 µM,1.03
same,relative viability,[9]; first compound 0.253 µM,0.985
same,relative viability,[9]; first compound 0.8 µM,1.02
same,relative viability,[9]; first compound 2.53 µM,1.03
same,relative viability,[10]; first compound 0.08 µM,1.06
same,relative viability,[10]; first compound 0.253 µM,1.01
same,relative viability,[10]; first compound 0.8 µM,1.01
same,relative viability,[10]; first compound 2.53 µM,1.01
NCI-H1563,relative viability,[1]; 0.08 µM,1.06
same,relative viability,[1]; 0.253 µM,0.958
same,relative viability,[1]; 0.8 µM,1.03
same,relative viability,[1]; 2.53 µM,1.12
same,relative viability,[2]; first compound 0.08 µM,0.909
same,relative viability,[2]; first compound 0.253 µM,0.896
same,relative viability,[2]; first compound 0.8 µM,0.949
same,relative viability,[2]; first compound 2.53 µM,0.839
same,relative viability,[11]; first compound 0.08 µM,0.876
same,relative viability,[11]; first compound 0.253 µM,0.673
same,relative viability,[11]; first compound 0.8 µM,0.749
same,relative viability,[11]; first compound 2.53 µM,0.785
same,relative viability,[12]; first compound 0.08 µM,0.715
same,relative viability,[12]; first compound 0.253 µM,0.787
same,relative viability,[12]; first compound 0.8 µM,0.755
same,relative viability,[12]; first compound 2.53 µM,0.752
same,relative viability,[13]; first compound 0.08 µM,0.568
same,relative viability,[13]; first compound 0.253 µM,0.487
same,relative viability,[13]; first compound 0.8 µM,0.481
same,relative viability,[13]; first compound 2.53 µM,0.539
same,relative viability,[4]; first compound 0.08 µM,1.12
same,relative viability,[4]; first compound 0.253 µM,0.872
same,relative viability,[4]; first compound 0.8 µM,0.854
same,relative viability,[4]; first compound 2.53 µM,1.27
same,relative viability,[5]; first compound 0.08 µM,0.635
same,relative viability,[5]; first compound 0.253 µM,0.622
same,relative viability,[5]; first compound 0.8 µM,0.625
same,relative viability,[5]; first compound 2.53 µM,0.616
same,relative viability,[6]; first compound 0.08 µM,1.2
same,relative viability,[6]; first compound 0.253 µM,1.22
same,relative viability,[6]; first compound 0.8 µM,1.13
same,relative viability,[6]; first compound 2.53 µM,1.25
same,relative viability,[14]; first compound 0.08 µM,0.722
same,relative viability,[14]; first compound 0.253 µM,0.602
same,relative viability,[14]; first compound 0.8 µM,0.593
same,relative viability,[14]; first compound 2.53 µM,0.631
same,relative viability,[7]; first compound 0.08 µM,0.953
same,relative viability,[7]; first compound 0.253 µM,0.817
same,relative viability,[7]; first compound 0.8 µM,0.98
same,relative viability,[7]; first compound 2.53 µM,0.987
same,relative viability,[8]; first compound 0.08 µM,0.944
same,relative viability,[8]; first compound 0.253 µM,0.865
same,relative viability,[8]; first compound 0.8 µM,0.833
same,relative viability,[8]; first compound 2.53 µM,0.899
same,relative viability,[15]; first compound 0.08 µM,0.441
same,relative viability,[15]; first compound 0.253 µM,0.381
same,relative viability,[15]; first compound 0.8 µM,0.459
same,relative viability,[15]; first compound 2.53 µM,0.483
same,relative viability,[10]; first compound 0.08 µM,0.945
same,relative viability,[10]; first compound 0.253 µM,0.762
same,relative viability,[10]; first compound 0.8 µM,0.887
same,relative viability,[10]; first compound 2.53 µM,1.07
NCI-H1623,relative viability,[1]; 0.08 µM,1.05
same,relative viability,[1]; 0.253 µM,0.874
same,relative viability,[1]; 0.8 µM,0.92
same,relative viability,[1]; 2.53 µM,0.979
same,relative viability,[16]; first compound 0.08 µM,0.406
same,relative viability,[16]; first compound 0.253 µM,0.426
same,relative viability,[16]; first compound 0.8 µM,0.408
same,relative viability,[16]; first compound 2.53 µM,0.377
same,relative viability,[11]; first compound 0.08 µM,0.517
same,relative viability,[11]; first compound 0.253 µM,0.43
same,relative viability,[11]; first compound 0.8 µM,0.34
same,relative viability,[11]; first compound 2.53 µM,0.369
same,relative viability,[13]; first compound 0.08 µM,0.482
same,relative viability,[13]; first compound 0.253 µM,0.494
same,relative viability,[13]; first compound 0.8 µM,0.313
same,relative viability,[13]; first compound 2.53 µM,0.537
same,relative viability,[14]; first compound 0.08 µM,0.61
same,relative viability,[14]; first compound 0.253 µM,0.528
same,relative viability,[14]; first compound 0.8 µM,0.46
same,relative viability,[14]; first compound 2.53 µM,0.545
same,relative viability,[7]; first compound 0.08 µM,0.939
same,relative viability,[7]; first compound 0.253 µM,0.901
same,relative viability,[7]; first compound 0.8 µM,0.83
same,relative viability,[7]; first compound 2.53 µM,0.818
same,relative viability,[15]; first compound 0.08 µM,0.588
same,relative viability,[15]; first compound 0.253 µM,0.611
same,relative viability,[15]; first compound 0.8 µM,0.456
same,relative viability,[15]; first compound 2.53 µM,0.527

# — the supplement of paper PMC10307832
